Data from patent publication US7423015B1, “Antihelminthic drugs as a treatment for hyperproliferative diseases” (Board of Regents, The University of Texas System, priority 2001, dated 2008).

Tests used:
[1] = system: H460 human non-small cell lung cancer xenograft; assay type: in vivo, athymic nu/nu mice
Method: Mice that had received 3.5 Gy of total body irradiation 1 day before inoculation were given injections into the shoulder of 2×10^6 tumor cells. Mice were then given MZ oral suspension (100 mg Vermox chewable tablet, Janssen Pharmaceutica, NJ, suspended in 10 ml PBS by sonication for 30 sec) with indicated concentration every other day, starting the day after 3-5 mm tumor established. Five mice were used in each group. Control and treated mice were then monitored for tumor growth; the tumors were measured externally in cross-sectional diameter every 7 days. Tumor volumes were calculated as previously described. Experiments were repeated three times.
The in vitro effect of MZ on proliferation of tumor cell lines prompted us to investigate its antitumor activity in an athymic nu/nu mouse model. Tumors were established by subcutaneous injection of H460 cells, a human non-small cell lung cancer (NSCLC) cell line ([…] cells/mouse) (FIG. 5B). […] Moreover, 10/10 animals inoculated with 1×10^6 cells developed tumors within 12 days. […] T0.2, T0.4 and T0.8 correspond to 0.2, 0.4 and 0.8 mg of MZ treatment groups (FIG. 5C). Animals with established tumors, 3-5 mm in diameter, received MZ every other day for 4 weeks, after which tumors were harvested, photographed, and weighed.

[2] = system: breast, ovarian and colon carcinoma and osteosarcoma; assay: In vitro proliferation assay with MZ; assay type: cell-based; settings: Homo sapiens
[3] = system: VEGF; assay: VEGF expression/secretion in H460 cell line; assay type: cell-based, human; settings: H460, treatment period 18 hours
Method: FIG. 7. Percent Inhibition of VEGF Expression in H460 Cell Line After MZ Treatment. Treatment period was 18 hours; control (C); treatment (T).
(§1) One of the most encouraging findings is that MZ inhibited the neovascularization in the human xenografts tested. […] The inventors have thus shown that MZ is a potent antiangiogeneic agent. It had no effect on endothelial cell growth, instead directly targeting tumor cells in vivo. MZ may be effective in the treatment of cancer and other angiogenesis-dependent diseases.

[4] = system: human lung cancer cell lines (H460 and A549); assay: In vitro proliferation assay with MZ, cell count; assay type: cell-based; settings: 24 h treatment, read-out: half maximal inhibitory concentration (IC50)
Method: (§2) Cells of the human non-small cell lung cancer (NSCLC) cell line A549, WI-38 normal fibroblast (American Type Culture Collection, Rockville, Md.) and H460 (a gift from Drs. Adi Gazdar and John Minna. University of Texas Southwestern Medical Center, Dallas) were seeded on culture plates (2×10^4 cells/well) in F12 and RPMI medium, respectively, supplemented with 10% heat-inactivated fetal calf serum and antibiotics. HUVEC were grown in medium supplemented with growth factor (Clonetics, San Diego). The cells were then exposed to MZ dissolved in dimethyl sulfoxide (DMSO) when grown to 40-50% confluence. Cell growth was monitored by counting the cells using a hemocytometer.
(§3) Initially, the inventors examined the effect of MZ on proliferation of human lung cancer cell lines (H460 and A549) in vitro.

[5] = system: human vascular endothelial cells (HUVEC); assay: In vitro proliferation assay with MZ, cell count; assay type: cell-based; settings: 24 h treatment
Method: as §2, §3

[6] = target: topoisomerase I (Homo sapiens, UniProt P11387); assay: Test for topoisomerase I poison effect; assay type: biochemical
Sequence of topoisomerase I (P11387 whole entry): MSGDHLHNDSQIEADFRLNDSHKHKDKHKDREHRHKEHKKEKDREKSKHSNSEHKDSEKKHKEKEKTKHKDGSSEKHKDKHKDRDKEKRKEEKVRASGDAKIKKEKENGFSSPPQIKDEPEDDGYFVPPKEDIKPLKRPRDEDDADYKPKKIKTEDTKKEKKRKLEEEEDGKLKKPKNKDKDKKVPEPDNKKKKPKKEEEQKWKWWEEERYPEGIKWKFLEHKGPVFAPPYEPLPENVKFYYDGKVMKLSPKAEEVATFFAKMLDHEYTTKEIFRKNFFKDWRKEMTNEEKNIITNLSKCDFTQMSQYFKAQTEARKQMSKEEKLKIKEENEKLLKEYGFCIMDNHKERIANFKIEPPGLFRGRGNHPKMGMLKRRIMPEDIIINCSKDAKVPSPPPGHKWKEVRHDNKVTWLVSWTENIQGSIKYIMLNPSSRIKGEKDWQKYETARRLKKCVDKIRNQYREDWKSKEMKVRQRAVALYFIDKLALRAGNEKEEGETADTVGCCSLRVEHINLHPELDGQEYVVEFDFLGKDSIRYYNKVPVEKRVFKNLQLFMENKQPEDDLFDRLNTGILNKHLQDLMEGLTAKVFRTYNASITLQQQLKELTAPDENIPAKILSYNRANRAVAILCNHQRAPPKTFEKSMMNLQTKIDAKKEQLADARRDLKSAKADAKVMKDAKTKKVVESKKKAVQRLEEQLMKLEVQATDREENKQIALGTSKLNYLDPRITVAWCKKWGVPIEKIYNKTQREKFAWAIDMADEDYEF
Excerpt: It has been shown recently that BZ are substrates for the P-glycoprotein transporter in multidrug-resistant tumor cells (Nare et al. 1994). It may be speculated that P-glycoprotein, which is overexpressed in several normal tissues and organs, could mediate the transport of BZ. Some terbenzimidazole compounds have been reported to be topoisomerase I poisons (Pilch et al., 1996).

[7] = system: neovascularization induced by A549 cells; assay: Angiogenesis by tumor cells in vivo, dorsal air-sac method; parameters: species or system nude mouse; settings: MZ oral suspension 1 mg/mouse/day, day 5
Method: In vivo angiogenesis was assayed by the dorsal air-sac method (Bouvet et al., 1998). Briefly, 1×10^7 cultured A549 cells were suspended in PBS and packed into round cellulose ester membrane chambers with a diameter of 14 mm (pore size, 0.45 μm; Millipore, Bedford, Mass.). The chambers were then implanted into a dorsal air sac of a nude mouse. After the chamber implantation mice were fed with MZ oral suspension (1 mg/mouse/day). Five mice were used in each group. The mice were killed on day 5, and the subcutaneous region overlying the chamber in each mouse was photographed. The experiment was repeated two times with identical results.
In vivo angiogenesis was further assayed by the dorsal air-sac method (Tanaka et al., 1989). Subcutaneous neovascularization overlying a semipermeable membrane chamber containing […] cells. […] In order to exclude the possibility that the reduced vasculature was due to lack of viable tumor cells in the chamber, cells were prelabeled with fluorescent dye and injected into the chamber. After the blood vessels were photographed, the tumor cells on the membrane was examined under a fluorescence microscope.

[8] = system: HUVEC cell tube formation; assay: HUVEC tube formation in conditioned medium; assay type: cell-based, human
Excerpt: as §1

[9] = system: A549 metastatic lung colonies; assay: Lung metastases in vivo after tail vein injection; parameters: species or system female nude mice
Method: To establish lung metastases, female nude mice were injected intravenously via tail vein with 10^6 A549 tumor cells suspended in […] of sterile PBS. Six days later, mice were divided into two groups of 5 mice each and treated. Group 1 received no treatment and group 2 received the experimental MZ drug orally at 1 mg of drug (100 μl) twice a week for 3 weeks. After 3 weeks, animals were euthanized by CO2 inhalation. Lungs from each of the mice from the two groups were injected intra-tracheally with India ink and fixed in Feketes solution. The therapeutic effect of MZ treatment was determined by counting the number of metastatic tumors in each lung under a dissecting microscope without knowledge of the treatment groups. The experiments were performed three times and data analyzed and interpreted as statistically significant if the p value was <0.05 by the Mann-Whitney rank-sum test.
Next, the inventors asked whether treatment with MZ would inhibit the growth of human metastatic lung cancer cells in vivo. About 300 metastatic colonies appeared on untreated mice 21 days after A549 cell injection into the tail vein (FIG. 6). This technique was reproducible as the totals blindly counted by two investigators differed by less than 10%. This experiment was performed three times with similar results. The oral administration of […] MZ reduced mean colony count to 80% of the mean value for controls (P<0.0001).

SMILES: COC(=O)Nc1nc2ccc(C(=O)c3ccccc3)cc2[nH]1 [Mebendazole, Methyl 5-benzoylbenzimidazole-2-carbamate]
- tumor growth, dose escalation ([1]; 0.2, 0.4 and 0.8 mg of MZ every other day): suppressed the growth of the tumors in a dose-dependent manner
- tumor weight versus control animals ([1]; MZ every other day for 4 weeks): marked difference
- tumor growth ([1]; established tumors (3 mm), 1 mg of MZ orally every other day): profoundly inhibit tumor growth
- toxicity in treated mice ([1]; mouse, in vivo): no signs of toxicity
- IC50 [2]: 100 to 800 nM
- VEGF secretion [3]: marked down-regulation
- IC50 [4]: ~120 nM
- effect on growth of HUVEC [5]: no effect
- topoisomerase I poison effect [6]: could not detect any
- number and caliber of blood vessels [7]: significantly reduced
- HUVEC cell tube formation [8]: inhibited
- size of tumor colonies (transverse diameter) ([9]; H and E staining of lung tissues): significantly reduced
- mean colony count, % of the mean value for controls ([9]; oral administration of 1 mg/ml MZ, 21 days after A549 injection, P<0.0001): 80%
